According to the supplement of paper PMC11208160:

Assay: recombinant UMI read abundance after kanamycin selection (control-corrected) (log10(CPM+1)); higher = more efficient recombination; extreme values may be limits of the assay; sequences stand for … in AGTGCAGAGAAAATCGGCCAGTTTTCTCTGCCTGCAGTCCGCATGCCGTGGGACCCCTTGGGTTCTAACCTGTTGCCTAGATTTATGCAGCGGACTGCCTTTCTCCCAAAGTGATAAACCGG…AGGTTGGTTTCACT; site = the 11-nt donor
Method in brief: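 Pooled Escherichia coli screen of donor and donor-binding-loop pairs for the IS621 bridge recombinase. Each pair sits with a 12-nt UMI on a plasmid carrying a promoterless kanamycin gene. The library was co-electroporated with a target plasmid encoding a fixed target and T7-inducible recombinase, then plated with IPTG (0.07 mM) plus kanamycin, or unselected, each in two replicates. Recombinant UMIs were PCR-amplified across the donor–target junction and sequenced. Counts became CPM, averaged over replicates, scaled by control-derived factors and reported as log10(CPM+1).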
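Also: IS621 bridge recombinase in Escherichia coli cells against a fixed T5 target plasmid.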

Sequence | recombinant UMI read abundance (log10)
TTAGCTGCATGGACCGGTTTTCCCGGTAATCCGTATTTGTG (site TTAGCTGCTGA) | 0.631
TTAGCTGCATGGACCGGTTTTCCCGGTAATCCGTATTTGTG (site TTAGCTGCTTA) | 0.192
TTAGCTGCATGGACCGGTTTTCCCGGTAATCCGTATTTGTG (site TTAGCTTCTCA) | 0.00647
TTAGCTGCATGGACCGGTTTTCCCGGTAATCCGTATTTGTG (site TTAGGTGCTCA) | 0.0094
TTAGCTGCATGGACCGGTTTTCCCGGTAATCCGTATTTGTG (site TTAGTTGCTCA) | 0.00547
TTAGCTGCATGGACCGGTTTTCCCGGTAATCCGTATTTGTG (site TTATCTGCTCA) | 0.0225
TTAGCTGCATGGACCGGTTTTCCCGGTAATCCGTATTTGTG (site TTCGCTGCTCA) | 0.00425
TTAGCTGCATGGACCGGTTTTCCCGGTAATCCGTATTTGTG (site TTGGCTGCTCA) | 0.0755
TTAGCTGCATGGACCGGTTTTCCCGGTAATCCGTATTTGTG (site TTTGCTGCTCA) | 0.00733
TTAGGTGCATGGACCGGTTTTCCCGGTAATCCGTATTTGGT (site TTAGGTGCTAC) | 1.17
TTAGGTGCATGGACCGGTTTTCCCGGTAATCCGTATTTGTG (site TTAGATGCTCA) | 0.787
TTAGGTGCATGGACCGGTTTTCCCGGTAATCCGTATTTGTG (site TTAGCTGCTCA) | 0.0453
TTAGGTGCATGGACCGGTTTTCCCGGTAATCCGTATTTGTG (site TTAGGTGCTCA) | 0.831
TTAGGTGCATGGACCGGTTTTCCCGGTAATCCGTATTTGTG (site TTAGTTGCTCA) | 0.0384
TTAGTAACATGGACCGGTTTTCCCGGTAATCCGTATTTGAC (site CTAGTATCTGT) | 1.07
TTAGTAACATGGACCGGTTTTCCCGGTAATCCGTATTTGAC (site TTAGTAACTGT) | 2.16

Sequence | recombinant UMI read abundance (log10)
TTAGTATCATGGACCGGTTTTCCCGGTAATCCGTATTTGCA (site ACAGTATCTTG) | 1.99
TTAGTATCATGGACCGGTTTTCCCGGTAATCCGTATTTGCA (site TTAGTATCTTG) | 1.42
TTAGTCTCATGGACCGGTTTTCCCGGTAATCCGTATTTGAT (site TTAGTCTCTAT) | 2.82
TTAGTTACATGGACCGGTTTTCCCGGTAATCCGTATTTGCC (site TTAGTTACTGG) | 2.18
TTATACTCATGGACCGGTTTTCCCGGTAATCCGTATTTGCA (site TAATACTCTTG) | 1.93
TTATACTCATGGACCGGTTTTCCCGGTAATCCGTATTTGCA (site TCATACTCTTG) | 1.9
TTATACTCATGGACCGGTTTTCCCGGTAATCCGTATTTGCA (site TGATACTCTTG) | 2.05
TTATACTCATGGACCGGTTTTCCCGGTAATCCGTATTTGCA (site TTATACTCTTG) | 2.72
TTATCATCATGGACCGGTTTTCCCGGTAATCCGTATTTGAG (site TTATCATCTCT) | 0.385
TTATGACCATGGACCGGTTTTCCCGGTAATCCGTATTTGAC (site TTATGACCTGT) | 0
TTATGCACATGGACCGGTTTTCCCGGTAATCCGTATTTGGC (site TTATGCACTGC) | 1.93
TTATGTCCATGGACCGGTTTTCCCGGTAATCCGTATTTGTA (site TTATGTCCTTA) | 0.134
TTATGTCCATGGACCGGTTTTCCCGGTAATCCGTATTTGTC (site TTATGTCCTGA) | 0.363
TTCAAACCATGGACCGGTTTTCCCGGTAATCCGTATTTGCG (site TTCAAACCTCG) | 0
TTCAAGACATGGACCGGTTTTCCCGGTAATCCGTATTTGCC (site TTCAAGACTGG) | 0
TTCACCGCATGGACCGGTTTTCCCGGTAATCCGTATTTGCG (site TACACCGCTCG) | 0.00969
